# From patent US8895559B2, “Quinoxalines derivatives and pharmaceutical compositions and kits” (Merck Patent GmbH, priority 2010, dated 2014)
# Test system: PI3K
# Assay: Cellular testing of PI3K inhibitors: P-S473-PKB Luminex assay in PC3 cells
# Type: cell-based
# Conditions: PI3K-dependent phosphorylation of PKB at Serin 473 in PC3 cells
# Protocol: Description of the Method for the Cellular Testing of PI3K Inhibitors
# The cellular assay for determination of the P-S473-PKB level is carried out as a Luminex assay in 96-well format in PC3 cells.
# PC3 cells are sown out with 20,000 cells per well in 100 μl medium (45% RPMI1460/45% Ham's F12/10% FCS) and incubated on the following day for 30 min with a serial dilution of the test substance (7 concentrations) under serum-free conditions. […] The lysates are incubated overnight at 4° C. with shaking with Luminex beads to which an anti-total PKB antibody is coupled. The detection is carried out on the following day by addition of a P-S473-PKB antibody and a species-specific PE-labelled secondary antibody. The detection of P-S473-PKB is carried out by measurement in a Luminex 100 instrument by determination of 100 events per cavity in a measurement time of 60 sec. […] The values of the preparations treated with test substance are calculated from this as percent of control, and IC50 values are determined by means of RS1.
row,IC50 [nM],Structure (SMILES)
1,86,COc1cc(Nc2nc3ccccc3nc2NS(=O)(=O)c2cn(C)cn2)c(OCCS(C)(=O)=O)c(OC)c1 [drawing 161]
2,370,COc1ccc(CCCO)c(Nc2nc3ccccc3nc2NS(=O)(=O)c2cn(C)cn2)c1 [reference compound]
3,38,COc1cc(Nc2nc3ccccc3nc2NS(C)(=O)=O)c(OCCC(C)O)c(OC)c1 (stereo not shown) [drawing 155]

# Same assay, conditions: PI3 kinase inhibition, cell
row,IC50 [nM],Structure (SMILES)
1,100 to 10000,COc1cc(Nc2nc3ccccc3nc2NS(=O)(=O)c2cn(C)c(CN(C)C)n2)c(OCCC(C)(C)O)c(OC)c1 [Compound A128]
2,100 to 10000,COc1cc(Nc2nc3ccccc3nc2NS(=O)(=O)c2ccc(C(=O)N3CC(F)(F)C3)cc2)c(OCCCO)c(OC)c1 [Compound A98]
3,100 to 10000,COc1cc(Nc2nc3ccccc3nc2NS(=O)(=O)c2cn(C)cn2)c(OC)c(OC)c1 [Compound A92]
4,1 to 100,COc1cc(Nc2nc3ccccc3nc2NS(=O)(=O)C(F)F)c(OCCC(C)O)c(OC)c1 (stereo not shown) [Compound A115]
5,100 to 10000,COc1cc(Nc2nc3ccccc3nc2NS(=O)(=O)c2ccc(NC(C)=O)cc2)c(OCCOCCO)c(OC)c1 [Compound A62]
6,100 to 10000,COc1cc(Nc2nc3ccccc3nc2NS(=O)(=O)c2cccnc2)c(OCCCO)c(OC)c1 [Compound A79]
7,1 to 100,COc1cc(Nc2nc3ccccc3nc2NS(=O)(=O)c2ccc(C#N)cc2)c(OCC[S+]([O-])CCO)c(OC)c1 (stereo not shown) [Compound A72]
8,100 to 10000,COc1cc(Nc2nc3ccccc3nc2NS(=O)(=O)c2cnn(C)c2)c(OCCC(C)O)c(OC)c1 (stereo not shown) [Compound A43]
9,100 to 10000,COc1cc(Nc2nc3ccccc3nc2NS(=O)(=O)c2ccc(C(=O)N(C)C)cc2)c(OCCOCCO)c(OC)c1 [Compound A69]
10,100 to 10000,COc1cc(Nc2nc3ccccc3nc2NS(=O)(=O)c2cn(C)c(CN(C)C)n2)c(OCCCO)c(OC)c1 [Compound A33]
11,1 to 100,COCCOCCOc1c(Nc2nc3ccccc3nc2NS(=O)(=O)c2cn(C)cn2)cc(OC)cc1OC [Compound A47]
12,100 to 10000,COc1cc(Nc2nc3ccccc3nc2NS(=O)(=O)c2ccn(C(F)(F)C(=O)N(C)C)n2)c(OCCCO)c(OC)c1 [Compound A119]
13,100 to 10000,COc1cc(Nc2nc3ccccc3nc2NS(=O)(=O)c2cccc(C(=O)N3CCC3)c2)c(OCCCO)c(OC)c1 [Compound A108]
14,100 to 10000,COc1cc(Nc2nc3ccccc3nc2NS(=O)(=O)c2cn(C)cn2)c(OCC(O)CO)c(OC)c1 (stereo not shown) [Compound A75]
15,100 to 10000,COc1cc(C)c(OC)c(Nc2nc3ccccc3nc2NS(=O)(=O)c2ccc(C(=O)N(C)C)cc2)c1 [Compound A12]
16,1 to 100,COc1cc(Nc2nc3ccccc3nc2NS(=O)(=O)c2ccc(C#N)cc2)c(CCCCO)c(OC)c1 [Compound A6]
17,100 to 10000,CCc1c(Nc2nc3ccccc3nc2NS(=O)(=O)c2ccc(C(=O)N(C)C)cc2)cc(OC)cc1OC [Compound A13]
18,100 to 10000,COc1cc(Nc2nc3ccccc3nc2NS(=O)(=O)c2cn(C)c(CN(C)C)n2)c(OCCCCO)c(OC)c1 [Compound A113]
19,100 to 10000,COc1cc(Nc2nc3ccccc3nc2NS(=O)(=O)c2cccc(C#N)c2)c(OCCOCCO)c(OC)c1 [Compound A63]
20,1 to 100,COc1cc(Nc2nc3ccccc3nc2NS(=O)(=O)c2cncs2)c(OCCC(C)O)c(OC)c1 (stereo not shown) [Compound A101]

# Further lines, the compound ahead of its results:
row,Structure (SMILES),IC50 [nM]
1,"COc1cc(Nc2nc3ccccc3nc2NS(=O)(=O)c2ccc(CN(C)C)cc2)c(OCCOCCO)c(OC)c1 [Compound A57, 4-Dimethylaminomethyl-N-(3-{2-[2-(2-hydroxy-ethoxy)ethoxy]-3,5-dimethoxyphenylamino}-quinoxalin-2-yl)benzenesulfonamide]",100 to 10000
2,COc1cc(Nc2nc3ccccc3nc2NS(=O)(=O)c2ccn(C)n2)c(OCCC(C)O)c(OC)c1 (stereo not shown) [Compound A100],1 to 100
3,COc1cc(Nc2nc3ccccc3nc2NS(=O)(=O)c2ccc(C#N)cc2)c(OCCS(=O)(=O)CCO)c(OC)c1 [Compound A76],1 to 100
4,COc1cc(Nc2nc3ccccc3nc2NS(=O)(=O)C(F)(F)F)c(OCCOCCO)c(OC)c1 [Compound A49],1 to 100
5,CCc1c(Nc2nc3ccccc3nc2NS(=O)(=O)c2cn(C)cn2)cc(OC)cc1OC [Compound A14],100 to 10000
6,COc1cc(Nc2nc3ccccc3nc2NS(=O)(=O)c2cccnc2)c(OCCS(=O)(=O)CCO)c(OC)c1 [Compound A67],100 to 10000
7,COc1cc(Nc2nc3ccccc3nc2NS(=O)(=O)c2ccc(C#N)s2)c(OCCCO)c(OC)c1 [Compound A51],1 to 100
8,COc1cc(Nc2nc3ccccc3nc2NS(=O)(=O)c2ccc(C#N)cc2)c(OCCC(C)O)c(OC)c1 (stereo not shown) [Compound A45],1 to 100
9,COc1cc(Nc2nc3ccccc3nc2NS(=O)(=O)c2ccn(CC(=O)N(C)C)n2)c(OCCCO)c(OC)c1 [Compound A122],1 to 100
10,COc1cc(Nc2nc3ccccc3nc2NS(=O)(=O)c2cn(C)cn2)c(OCCS(=O)(=O)CCO)c(OC)c1 [Compound A77],100 to 10000
11,COc1cc(Nc2nc3ccccc3nc2NS(=O)(=O)c2ccn(C)n2)c(OC)c(OC)c1 [Compound A121],1 to 100
12,COc1cc(Nc2nc3ccccc3nc2NS(=O)(=O)c2ccc(C#N)s2)c(OCCS(C)(=O)=O)c(OC)c1 [Compound A41],1 to 100
13,COc1cc(Nc2nc3ccccc3nc2NS(=O)(=O)CCC#N)c(OCCCO)c(OC)c1 [Compound A96],100 to 10000
14,COc1cc(Nc2nc3ccccc3nc2NS(=O)(=O)c2cn(C)cn2)c(OCCS(C)(=O)=O)c(OC)c1 [Compound A55],1 to 100
15,CCc1cc(OC)cc(Nc2nc3ccccc3nc2NS(=O)(=O)c2ccc(C(=O)N(C)C)cc2)c1OC [Compound A18],> 10000
16,COc1cc(Nc2nc3ccccc3nc2NS(=O)(=O)c2cccs2)c(OCCO)c(OC)c1 [Compound A66],1 to 100
17,COc1cc(Nc2nc3ccccc3nc2NS(=O)(=O)C(F)(F)F)c(OC)c(OC)c1 [Compound A40],1 to 100
18,COc1cc(Nc2nc3ccccc3nc2NS(=O)(=O)c2ccc(F)c(F)c2)c(OCCCO)c(OC)c1 [Compound A71],1 to 100
19,"COc1cc(Nc2nc3ccccc3nc2NS(=O)(=O)c2ccn(C(F)(F)C(=O)N(C)C)n2)c(OCCC(C)O)c(OC)c1 (stereo not shown) [Compound A118, 2,2-difluoro-2-(3-{3-[2-(3-hydroxybutoxy)-3,5-dimethoxy-phenylamino]-quinoxalin-2-ylsulfamoyl}pyrazol-1-yl)-N,N-dimethylacetamide]",100 to 10000
20,CCCS(=O)(=O)Nc1nc2ccccc2nc1Nc1cc(OC)cc(OC)c1OCCOCCO [Compound A56],100 to 10000
21,"COc1cc(Nc2nc3ccccc3nc2NS(=O)(=O)c2cnn(CCN(C)C)c2)c(OCCCO)c(OC)c1 [Compound A23, 1-(2-Dimethylamino-ethyl)-1H-pyrazole-4-sulfonic acid {3-[2-(3-hydroxypropoxy)-3,5-dimethoxy-phenylamino]quinoxalin-2-yl} amide]",100 to 10000
22,"COc1cc(Nc2nc3ccccc3nc2NS(=O)(=O)c2ccc(CN)cc2)c(OCCCO)c(OC)c1 [Compound A106, 4-aminomethyl-N-{3-[2-(3-hydroxypropoxy)-3,5-dimethoxy-phenylamino]-quinoxalin-2-yl}benzenesulfonamide]",1 to 100
23,"COc1cc(Nc2nc3ccccc3nc2NS(=O)(=O)c2ccc(CNC(C)=O)cc2)c(OCCCO)c(OC)c1 [Compound A132, N-(4-{3-[2-(3-hydroxypropoxy)-3,5-dimethoxyphenylamino]quinoxalin-2-ylsulfamoyl}benzyl)acetamide]",1 to 100
